Here are results for 52 compounds from patent publication US11396501B2, “Heteroaryl compounds as CXCR4 inhibitors, composition and method using the same” (CGENETECH (SUZHOU, CHINA) CO., LTD., priority 2017, dated 2022).

Chain of CXCR4 (P61073 whole entry): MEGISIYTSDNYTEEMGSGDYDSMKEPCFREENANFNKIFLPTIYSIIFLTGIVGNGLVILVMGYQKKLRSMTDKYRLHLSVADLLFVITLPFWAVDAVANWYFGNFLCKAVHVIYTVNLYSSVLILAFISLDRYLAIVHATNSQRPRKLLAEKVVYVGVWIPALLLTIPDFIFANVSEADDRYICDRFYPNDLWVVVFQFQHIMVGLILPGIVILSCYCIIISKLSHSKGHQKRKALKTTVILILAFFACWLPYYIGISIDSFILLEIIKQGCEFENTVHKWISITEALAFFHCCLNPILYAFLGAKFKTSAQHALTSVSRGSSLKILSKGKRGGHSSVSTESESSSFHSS

This experiment has as its target CXCR4 (Homo sapiens, UniProt P61073). Put plainly: FLIPR Tetra calcium mobilization assay. The experiment is classed as cell-based. To be noted: Human CD4+ T-Cells; CXCL12 added; FLIPR Calcium 4 assay kit. As for the experimental part: FLIPR Tetra Calcium Mobilization Assay The FLIPR Tetra calcium mobilization assay was performed by HD Bioscience. Briefly, The Molecular Devices, Fluorescent Imaging Plate Reader (FLIPR) Tetra was used in this assay. Excitation was achieved through unique placement of LED's within the instrument and emission captured by a CCD camera (EMCCD camera for FI and ICCD camera for luminescence). The homogeneous FLIPR Calcium 4 assay kit from Molecular Devices was used as the fluorescence reagent. Compounds were solubilized in 100% dimethyl sulfoxide (DMSO) to a concentration of 30 mM. A 10-point, 4-fold, intermediate dilution series was created in 100% DMSO with a top concentration of 4 mM and a bottom concentration of 0.01 μM. A near assay ready, direct dilution plate ([…]) was prepared from this compound dilution plate by transferring 1 μL of each dilution of compound in 100% DMSO to a Greiner #781201 plate. In addition, each […] plate also contained positive and negative control wells to define the upper and lower limits for the assay signal. The final assay concentration range of compound was 10 μM to 0.035 nM in 0.5% DMSO. Human CD^4+ T-Cells were isolated from human whole blood and subsequently activated and expanded using a CD3/CD28 expansion kit (Life Technologies). The cells were frozen in ThermoFisher-formulated Recovery Cell Culture Freezing Medium containing 10% Dimethyl sulfoxide (DMSO) and 10% Fetal Bovine Serum (FBS) (ThermoFisher Catalog No. 10100147). When used, cells were resuspended using room temperature 1× HBSS/20 mM HEPES/0.005% P-104 assay buffer, adjusted the volume of the suspension to achieve a cell concentration of 2.5×10^6 cells/mL. 2× Calcium 4 dye (20 μL/well) were added and the mixture were centrifuged briefly ( 10 s) and stopped when it reached 1000 rpm. The plates were allowed to equilibrate before compounds and CXCL12 were added to the plates. The raw data were analyzed using Abase. The percent (%) effect at each concentration of compound was calculated by Abase and was based on and relative to the amount of calcium produced in the positive and negative control wells contained within each assay plate. The concentrations and % effect values for tested compounds were plotted by Abase and the concentration of compound required for 50% effect (IC50) was determined with a four-parameter logistic dose response equation. FIGS. 3 and 4 summarize the results of Compounds A78 and A83 in the calcium mobilization assay.
With `Cc1nc(CN(C)c2ncnc3cccnc23)cc(N2CCN(C)CC2)n1` [Compound D24], the IC50 – broadly, the midpoint of a concentration-inhibition curve – came to 12400 nM.
`C[C@@H](c1ccccn1)N(C)Cc1nc2cccc(N3CCN(C)CC3)n2c1CO` [Compound A96, (S)-(2-((methyl(1-(pyridin-2-yl)ethyl)amino)methyl)-5-(4-methylpiperazin-1-yl)imidazo[1,2-a]pyridin-3-yl)methanol]: the IC50 was found to be 0.086 nM.
Regarding `Cc1nc(CN(CCCC(=O)OC(C)(C)C)c2cccc3cccnc23)cc(N2CCN(C)CC2)n1` [Compound D29], the IC50 was 12.7 nM.
As to `Cc1nc(CN(C)c2ccc(S(C)(=O)=O)c3cccnc23)cc(N2CCN(C)CC2)n1` [Compound D43, N-methyl-N-((2-methyl-6-(4-methylpiperazin-1-yl)pyrimidin-4-yl)methyl)-5-(methylsulfonyl)quinolin-8-amine], the IC50 was determined as 3380 nM.
The figure for `C[C@@H](c1ccccn1)N(C)Cc1cn2c(N3CCN4CCC[C@H]4C3)cccc2n1` [Compound A97] is 0.25 nM.
The same measure for `Cc1nc(CN(C)[C@@H](C)c2ccccn2)c(CO)c(N2CCN3CCC[C@H]3C2)n1` [Compound A87]: 0.18 nM; for `CN1CCN(c2cc(CN(C)c3cccc4cccnc34)nc(CO)n2)CC1` [Compound D54]: 7.2 nM.
For `Cc1nc(CN(C)c2c(NS(C)(=O)=O)ccc3cccnc23)cc(N2CCN(C)CC2)n1` [Compound D59], the IC50 stood at 450 nM.
As to `C[C@@H](c1ccccn1)N(C)Cc1cn2c(N3CCN4CCC[C@@H]4C3)cccc2n1` [Compound A98], the IC50 worked out at 0.15 nM.
The same measure for `Cc1nc(CN(C)C2CCOc3cccnc32)cc(N2CCN(C)CC2)n1` (stereo not shown) [Compound A90]: 0.046 nM; for `Cc1cccnc1[C@@H]1CCCN1Cc1cn2c(N3CCN(C)CC3)cccc2n1` [Compound C38, (S)-5-(4-methylpiperazin-1-yl)-2-((2-(3-methylpyridin-2-yl)pyrrolidin-1-yl)methyl)imidazo11,2-alpyridine]: 0.2 nM; for `Cc1nc(CN(C)c2cc(Br)cc3cccnc23)cc(N2CCN(C)CC2)n1` [Compound D45]: 3 nM.
The same measure for `Cc1nc(CN2CCC[C@H]2c2ncccc2C)cc(N2CCC(N(C)C)CC2)n1` [Compound C37]: 12 nM; for `Cc1nc(CN(C)c2ccc(F)c3cccnc23)cc(N2CCN(C)CC2)n1` [Compound D19]: 0.4 nM; for `Cc1nc(CN(C)c2cc(C#N)cc3cccnc23)cc(N2CCN(C)CC2)n1` [Compound D46]: 53 nM.
The same measure for `Cc1nc(CN(C)c2cncc3cccnc23)cc(N2CCN(C)CC2)n1` [Compound D22, N-methyl-N-((2-methyl-6-(4-methylpiperazin-1-yl)pyrimidin-4-yl)methyl)-1,6-naphthyridin-8-amine]: 965 nM; for `Cc1nc(CN(CCCC(N)=O)c2cccc3cccnc23)cc(N2CCN(C)CC2)n1` [Compound D31, 4-(((2-methyl-6-(4-methylpiperazin-1-yl)pyrimidin-4-yl)methyl)(quinolin-8-yl)amino)butanamide]: 1.25 nM.
For `Cc1nc(CN(C)c2cccc3cccnc23)c(Cl)c(N2CCN(C)CC2)n1` [Compound D35], the IC50 was determined as 1.2 nM.
For the compound `C[C@@H](c1ccccn1)N(C)Cc1nc2cccc(N3CCN4CCC[C@H]4C3)n2c1CO` [Compound A99], the IC50 amounted to 0.39 nM.
For the compound `Cc1nc(CN2CCC[C@H]2c2ncccc2C)cc(N2CCCN(C)CC2)n1` [Compound C36], the IC50 was 0.5 nM.
Turning to `Cc1nc(CN(C)c2ccc(Br)c3cccnc23)cc(N2CCN(C)CC2)n1` [Compound D41], the IC50 came to 6.3 nM.
For `Cc1nc(CN(C)c2cc(CO)cc3cccnc23)cc(N2CCN(C)CC2)n1` [Compound D55, (8-(methyl((2-methyl-6-(4-methylpiperazin-1-yl)pyrimidin-4-yl)methyl)amino)quinolin-6-yl)methanol], the half-maximal inhibitory concentration (IC50) stood at 39 nM.
For `Cc1nc(CN(C)c2cccc3cccnc23)cc(N2CCCN(C)CC2)n1` [Compound D3], the IC50 came to 0.63 nM.
The same measure for `Cc1nc(CN2CCC[C@H]2c2ncccc2C)c(F)c(N2CCN(C)CC2)n1` [Compound C33]: 1.1 nM.
On to `Cc1nc(CN(C)c2ccc(C(F)(F)F)c3cccnc23)cc(N2CCN(C)CC2)n1` [Compound D40], for which the half-maximal inhibitory concentration (IC50) is 2850 nM.
`Cc1nc(CN(C)[C@@H](C)c2ccccn2)c(CO)c(N2CCN(C)CC2)n1` [Compound A85, (S)-(2-methyl-4-((methyl(1-(pyridin-2-yl)ethyl)amino)methyl)-6-(4-methylpiperazin-1-yl)pyrimidin-5-yl)methanol]: the 50% inhibitory concentration (IC50) is 0.99 nM.
Take `Cc1nc(CN(C)[C@@H](C)c2ccccn2)c(CO)c(N2CCN(C)[C@H](C)C2)n1` [Compound A89]: the IC50 came out at 0.13 nM.
With `Cc1nc(CN(C)c2cccc3cccnc23)cc(N2CCN(CCO)CC2)n1` [Compound D5], the concentration for half-maximal inhibition (IC50) stood at 2.1 nM.
On to `CCN(Cc1cc(N2CCN(C)CC2)nc(C)n1)[C@@H](C)c1ccccn1` [Compound A80], for which the IC50 came to 0.18 nM.
Regarding `Cc1nc(CN(C)c2cccc3cccnc23)cc(N2CCN(C3CC3)CC2)n1` [Compound D8], the half-maximal inhibitory concentration (IC50) worked out at 1.4 nM.
On to `Cc1nc(CN(C)c2c(F)ccc3cccnc23)cc(N2CCN(C)CC2)n1` [Compound D17], for which the concentration for half-maximal inhibition (IC50) was 74 nM.
Turning to `CN1CCN(c2cccc3nc(CN(C)c4cccc5cccnc45)cn23)CC1` [Compound D38], the IC50 was 0.18 nM.
With `CCc1nc(CN(C)c2cccc3cccnc23)cc(N2CCN(C)CC2)n1` [Compound D9], the IC50 stood at 0.59 nM.
The same measure for `COc1cccnc1[C@H](C)N(C)Cc1cc(N2CCN(C)CC2)nc(C)n1` [Compound A92]: 118 nM.
As to `Cc1nc(CN(C)c2cc(S(C)(=O)=O)cc3cccnc23)cc(N2CCN(C)CC2)n1` [Compound D47], the 50% inhibitory concentration (IC50) turned out to be 13 nM.
`C[C@@H](c1ccccn1)N(C)Cc1cn2c(N3CCN(C)CC3)cccc2n1` [Compound A95, (S)-N-methyl-N-((5-(4-methylpiperazin-1-yl)imidazo[1,2-a]pyridin-2-yl)methyl)-1-(pyridin-2-yl)ethan-1-amine]: the IC50 was 0.13 nM.
With `Cc1nc(CN(C)[C@@H](C)c2ccccn2)c(CO)c(N2CCN3CCC[C@@H]3C2)n1` [Compound A86], the concentration for half-maximal inhibition (IC50) came out at 0.13 nM.
As for `Cc1nc(CN(C)c2c(CO)ccc3cccnc23)cc(N2CCN(C)CC2)n1` [Compound D56], the IC50 is 5.5 nM.
As for `CCN(Cc1cc(N2CCN(C)CC2)nc(C)n1)c1cc(C)cc2cccnc12` [Compound D32], the half-maximal inhibitory concentration (IC50) amounted to 0.53 nM.
Take `C[C@@H](c1ccccn1)N(C)Cc1cc(N2CCN(C)CC2)nc(CO)n1` [Compound A81]: the IC50 was 4.5 nM.
On to `Cc1nc(CN(C)c2cc(F)cc3cccnc23)cc(N2CCN(C)CC2CO)n1` (stereo not shown) [Compound D52], for which the concentration for half-maximal inhibition (IC50) amounted to 4.5 nM.
As for `Cc1nc(CN(C)c2c(Br)ccc3cccnc23)cc(N2CCN(C)CC2)n1` [Compound D49], the IC50 is 4.5 nM.
With `C[C@@H](c1ccccn1)N(C)Cc1nc2cccc(N3CCN4CCC[C@@H]4C3)n2c1CO` [Compound A100], the half-maximal inhibitory concentration (IC50) is 0.29 nM.
Regarding `Cc1nc(CN(C)[C@@H](C)c2ccccn2)cc(N2CCN3CCC[C@@H]3C2)n1` [Compound A78], the IC50 came to 0.062 nM.
The same measure for `CN1CCN(c2cc(CN(C)c3cccc4cccnc34)nc(N(C)C)n2)CC1` [Compound D11]: 1700 nM; for `Cc1nc(CN2CCC[C@H]2c2ncccc2C)c(C#N)c(N2CCN(C)CC2)n1` [Compound C34]: 1.8 nM; for `Cc1nc(CN(C)c2cc(NS(C)(=O)=O)cc3cccnc23)cc(N2CCN(C)CC2)n1` [Compound D58, N-(8-(methyl((2-methyl-6-(4-methylpiperazin-1-yl)pyrimidin-4-yl)methyl)amino)quinolin-6-yl)methane sulfonamide]: 55 nM.
Turning to `Cc1nc(CN(C)c2c(S(C)(=O)=O)ccc3cccnc23)cc(N2CCN(C)CC2)n1` [Compound D51], the IC50 amounted to 2090 nM.
Regarding `COc1nc(CN(C)c2cccc3cccnc23)cc(N2CCN(C)CC2)n1` [Compound D13], the IC50 is 2.9 nM.
For `Cc1nc(CN(C)c2ccc(C)c3cccnc23)cc(N2CCN(C)CC2)n1` [Compound D16], the IC50 was determined as 2.7 nM.
The figure for `CN1CCN(c2cc(CN(C)c3cccc4cccnc34)nc(C3CC3)n2)CC1` [Compound D10] is 2.9 nM; for `Cc1nc(CN(C)c2c(C#N)ccc3cccnc23)cc(N2CCN(C)CC2)n1` [Compound D50, 8-(methyl((2-methyl-6-(4-methylpiperazin-1-yl)pyrimidin-4-yl)methyl)amino)quinoline-7-carbonitrile] it is 14 nM.
